Experimental data: ChEMBL document CHEMBL3396948 (Bioorg Med Chem, 2015)
Activity calls are given as the source filed them. No cut-off for these calls is given here.

Experiments:
[1] = system: Trypanosoma brucei brucei; assay: Trypanocidal activity against drug-sensitive Trypanosoma brucei brucei Lab 110 EATRO assessed as inhibition of trypanosomes after 48 hrs; format: functional, organism-based
[2] = system: Trypanosoma brucei rhodesiense; assay: Trypanocidal activity against clinical isolate Trypanosoma brucei rhodesiense KETRI 269 assessed as inhibition of trypanosomes after 48 hrs; format: functional, organism-based; conditions: KETRI 269, 48 h
[3] = system: Saccharomyces cerevisiae; assay: Inhibition of yeast glutathione reductase assessed as reduction of glutathione disulfide up to 250 uM by spectrophotometrically
[4] = system: Trypanosoma brucei rhodesiense; assay: Trypanocidal activity against pentamidine and melarsoprol-resistant Trypanosoma brucei rhodesiense K 243-As-10-3 assessed as inhibition of trypanosomes after 48 hrs; format: functional, organism-based; conditions: K 243-As-10-3, 48 h
[5] = target: Trypanothione reductase (Trypanosoma cruzi, UniProt P28593); assay: Inhibition of Trypanosoma cruzi trypanothione reductase assessed as reduction of trypanothione disulfide by spectrophotometrically
Sequence of Trypanothione reductase (P28593 whole entry): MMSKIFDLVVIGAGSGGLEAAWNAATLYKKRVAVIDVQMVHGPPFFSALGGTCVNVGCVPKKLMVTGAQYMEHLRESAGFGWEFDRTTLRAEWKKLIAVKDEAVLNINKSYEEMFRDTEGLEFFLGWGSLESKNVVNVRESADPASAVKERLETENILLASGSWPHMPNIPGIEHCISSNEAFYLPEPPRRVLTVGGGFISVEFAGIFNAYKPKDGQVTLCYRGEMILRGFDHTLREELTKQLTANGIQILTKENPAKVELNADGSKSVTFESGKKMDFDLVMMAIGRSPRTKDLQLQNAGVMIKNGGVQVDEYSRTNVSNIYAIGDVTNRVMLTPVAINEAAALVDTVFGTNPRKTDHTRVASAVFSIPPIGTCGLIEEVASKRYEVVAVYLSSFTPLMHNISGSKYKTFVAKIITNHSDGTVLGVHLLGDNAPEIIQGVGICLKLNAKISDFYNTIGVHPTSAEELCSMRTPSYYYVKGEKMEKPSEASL

[6] = system: Mus musculus; assay: Toxicity in drug-sensitive Trypanosoma brucei brucei Lab 110 EATRO infected in female Swiss-Webster mouse assessed as death at 50 mg/kg, ip once daily for 3 days relative to control; format: organism-based; parameters: dose 50 mg/kg, route intraperitoneal; conditions: in vivo, 72 h
[7] = system: Trypanosoma brucei rhodesiense; assay: Trypanocidal activity against clinical isolate Trypanosoma brucei rhodesiense KETRI 243 assessed as inhibition of trypanosomes after 48 hrs; format: functional, organism-based; conditions: KETRI 243, 48 h
[8] = system: Trypanosoma brucei brucei; assay: In vivo trypanocidal activity against drug-sensitive Trypanosoma brucei brucei Lab 110 EATRO infected in female Swiss-Webster mouse assessed as life prolongation at 50 mg/kg, ip administered in 2 daily doses for 3 days relative to control; format: functional, organism-based; parameters: dose 50 mg/kg
[9] = system: Trypanosoma brucei; assay: Trypanocidal activity against bloodstream form of Trypanosoma brucei assessed as inhibition of trypanosomes after 48 hrs; format: functional, organism-based
[10] = system: Trypanosoma brucei brucei; assay: In vivo trypanocidal activity against drug-sensitive Trypanosoma brucei brucei Lab 110 EATRO infected in female Swiss-Webster mouse assessed as life prolongation at 1 to 25 mg/kg, ip once daily for 3 days relative to control; format: functional, organism-based
[11] = system: Mus musculus; assay: Toxicity in drug-sensitive Trypanosoma brucei brucei Lab 110 EATRO infected in female Swiss-Webster mouse assessed as death at 1 to 25 mg/kg, ip once daily for 3 days relative to control; format: organism-based; parameters: dose 1-25 mg/kg, route intraperitoneal; conditions: in vivo, 72 h

Compound	IC50 [1] [µM]	IC50 [2] [µM]	inhibition [3]	IC50 [4] [µM]	Ki [5] [µM]	Activity [6]	IC50 [7] [µM]	Activity [8]	EC50 [9] [µM]	Activity [10]	Activity [11]
NCCCN(CCCCN(CCCN)C1c2ccccc2CCc2ccccc21)C1c2ccccc2CCc2ccccc21	2.55	1.69	inactive	22	0.255	Toxic	1.5	Active	–	–	–
CN(C)CCCN1c2ccccc2CCc2ccc(Cl)cc21 [CLOMIPRAMINE]	–	–	inactive	–	–	–	–	–	5.05	–	–
NCCN(CCN)C1c2ccccc2CCc2ccccc21	2.8	–	inactive	–	27.9	–	–	–	–	–	–
NCCCN(CCCN)C1c2ccccc2CCc2ccccc21	–	–	inactive	–	7.62	–	–	–	–	–	–
CN(C)CCNC1c2ccccc2CCc2ccccc21	1.68	–	inactive	–	136	–	2	–	–	–	–
CN(C)CCCNC1c2ccccc2CCc2ccccc21	1.38	–	inactive	–	81.6	–	–	–	–	–	–
NCCCCN(CCCN)C1c2ccccc2CCc2ccccc21	0.62	4.3	inactive	8.3	4	–	4.5	–	–	inactive	Toxic
